Experimental data taken from ChEMBL document CHEMBL1201862, “PubChem BioAssay data set” (2004).
Calls of active or inactive are those of the source.

Columns and labels:
[1] = molecular target: T1, Intestinal-type alkaline phosphatase (Homo sapiens, UniProt P09923); test: activation of human intestinal alkaline phosphatase – biochemical, luminescent, uHTS hits, set 2, dose response (AID 488817); format: functional;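 also: potency of activators that raise enzyme activity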
[2] = molecular target: Intestinal-type alkaline phosphatase (Mus musculus, UniProt P24822); test: PubChem AID 488875; format: functional
[3] = molecular target: T2, Alkaline phosphatase, tissue-nonspecific isozyme (Homo sapiens, UniProt P05186); test: activation of tissue-nonspecific alkaline phosphatase – biochemical, TNAP isozyme, human IAP uHTS hits, selectivity assay for human IAP activator project, dose response (AID 488886); format: functional;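 also: potency of compounds raising TNAP activity as a selectivity check on IAP activators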
T2 sequence (P05186 whole entry): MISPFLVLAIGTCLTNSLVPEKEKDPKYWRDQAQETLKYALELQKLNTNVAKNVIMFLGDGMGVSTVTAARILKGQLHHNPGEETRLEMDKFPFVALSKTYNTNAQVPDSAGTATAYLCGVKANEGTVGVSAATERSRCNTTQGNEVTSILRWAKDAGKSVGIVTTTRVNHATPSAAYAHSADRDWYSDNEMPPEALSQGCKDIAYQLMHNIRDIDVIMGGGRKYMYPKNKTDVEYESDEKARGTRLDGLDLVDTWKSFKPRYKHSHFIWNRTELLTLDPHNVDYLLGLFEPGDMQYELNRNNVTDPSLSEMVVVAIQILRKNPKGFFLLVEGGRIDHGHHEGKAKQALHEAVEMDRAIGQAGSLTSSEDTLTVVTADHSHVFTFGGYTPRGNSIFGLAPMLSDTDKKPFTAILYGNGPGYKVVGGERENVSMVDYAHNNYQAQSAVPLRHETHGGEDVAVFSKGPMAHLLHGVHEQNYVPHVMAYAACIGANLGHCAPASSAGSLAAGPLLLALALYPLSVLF

[4] = molecular target: T1, Intestinal-type alkaline phosphatase; test: human intestinal alkaline phosphatase activators, dose response, biochemical, luminescence, uHTS hits (AID 463120); format: functional
[5] = molecular target: T3, Dual specificity protein phosphatase 3 (Homo sapiens, UniProt P51452); test: SAR VHR1 Fluorescent Assay for In Vitro dose response studies. [Related pubchem assays (depositor defined):AID1654, AID1661, AID1878, AID1992, AID2004, AID2070, AID2085]; format: functional
[6] = molecular target: T4, Tyrosine-protein phosphatase non-receptor type 7 (Homo sapiens, UniProt P35236); test: redox-active compounds inhibiting HePTP phosphatase – biochemical, fluorescence, mechanism study (AID 2068); format: functional
T4 sequence (P35236 whole entry): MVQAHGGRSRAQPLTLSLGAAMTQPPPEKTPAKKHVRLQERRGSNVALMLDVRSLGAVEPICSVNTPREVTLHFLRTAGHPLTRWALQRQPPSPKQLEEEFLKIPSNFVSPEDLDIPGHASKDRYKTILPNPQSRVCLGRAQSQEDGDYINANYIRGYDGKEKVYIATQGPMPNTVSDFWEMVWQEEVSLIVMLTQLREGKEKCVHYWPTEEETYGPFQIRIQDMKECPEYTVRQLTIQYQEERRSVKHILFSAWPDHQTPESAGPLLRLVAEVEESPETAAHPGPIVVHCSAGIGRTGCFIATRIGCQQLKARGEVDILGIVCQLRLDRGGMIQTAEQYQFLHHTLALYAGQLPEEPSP

[7] = molecular target: T3, Dual specificity protein phosphatase 3; test: SAR VHR1 absorbance Assay for In Vitro dose response studies. [Related pubchem assays (depositor defined):AID1654, AID1661, AID1878, AID1992, AID2004]
[8] = molecular target: Dual specificity protein phosphatase 6 (Rattus norvegicus, UniProt Q64346); format: functional;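 also: confirmatory in vitro dose-response testing of MKP-3 inhibition; recombinant His-tagged MKP-3 made in E. coli BL21 with OMFP substrate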
[9] = molecular target: G-protein coupled receptor 55 (Homo sapiens, UniProt Q9Y2T6); test: blockers of GPR55 signalling, imaged – imaging, image-based, counter-screen for GPR35 antagonist project, SAR follow-up (AID 2397); format: functional
[10] = molecular target: T5, Hexokinase-1 (Homo sapiens, UniProt P19367); test: hexokinase 1 activity inhibitors, potency – biochemical, set 2, resazurin fluorescence coupled readout, selectivity assay for HKDC1 inhibitor project, SAR follow-up (AID 588356); format: functional
T5 sequence (P19367 whole entry): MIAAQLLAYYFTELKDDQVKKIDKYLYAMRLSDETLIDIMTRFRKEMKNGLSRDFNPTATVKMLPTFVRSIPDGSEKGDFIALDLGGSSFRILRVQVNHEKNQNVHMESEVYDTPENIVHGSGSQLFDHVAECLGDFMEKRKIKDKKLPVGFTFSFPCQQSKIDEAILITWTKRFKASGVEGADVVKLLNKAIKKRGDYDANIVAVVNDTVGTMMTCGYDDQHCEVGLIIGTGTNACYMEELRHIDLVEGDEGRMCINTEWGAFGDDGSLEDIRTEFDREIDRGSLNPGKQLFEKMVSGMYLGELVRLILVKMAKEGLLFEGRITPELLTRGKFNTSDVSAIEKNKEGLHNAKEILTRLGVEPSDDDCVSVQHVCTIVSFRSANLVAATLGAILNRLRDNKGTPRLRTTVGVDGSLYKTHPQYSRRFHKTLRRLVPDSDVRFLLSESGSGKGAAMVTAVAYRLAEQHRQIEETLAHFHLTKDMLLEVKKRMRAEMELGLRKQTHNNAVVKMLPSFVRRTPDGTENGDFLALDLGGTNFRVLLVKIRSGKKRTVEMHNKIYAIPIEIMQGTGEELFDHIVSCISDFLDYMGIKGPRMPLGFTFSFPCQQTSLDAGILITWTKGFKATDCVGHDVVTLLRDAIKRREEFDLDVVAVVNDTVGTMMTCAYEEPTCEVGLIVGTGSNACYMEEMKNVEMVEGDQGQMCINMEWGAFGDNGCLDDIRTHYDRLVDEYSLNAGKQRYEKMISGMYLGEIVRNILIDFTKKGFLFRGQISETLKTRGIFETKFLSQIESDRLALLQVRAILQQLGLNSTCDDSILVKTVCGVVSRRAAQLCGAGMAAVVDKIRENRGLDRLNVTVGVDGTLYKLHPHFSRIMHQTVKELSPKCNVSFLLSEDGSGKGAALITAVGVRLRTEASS

[11] = molecular target: T6, Hexokinase HKDC1 (Homo sapiens, UniProt Q2TB90); test: analog inhibition of human HKDC1 activity – biochemical, set 2, SAR follow-up (AID 588355); format: functional
T6 sequence (Q2TB90 whole entry): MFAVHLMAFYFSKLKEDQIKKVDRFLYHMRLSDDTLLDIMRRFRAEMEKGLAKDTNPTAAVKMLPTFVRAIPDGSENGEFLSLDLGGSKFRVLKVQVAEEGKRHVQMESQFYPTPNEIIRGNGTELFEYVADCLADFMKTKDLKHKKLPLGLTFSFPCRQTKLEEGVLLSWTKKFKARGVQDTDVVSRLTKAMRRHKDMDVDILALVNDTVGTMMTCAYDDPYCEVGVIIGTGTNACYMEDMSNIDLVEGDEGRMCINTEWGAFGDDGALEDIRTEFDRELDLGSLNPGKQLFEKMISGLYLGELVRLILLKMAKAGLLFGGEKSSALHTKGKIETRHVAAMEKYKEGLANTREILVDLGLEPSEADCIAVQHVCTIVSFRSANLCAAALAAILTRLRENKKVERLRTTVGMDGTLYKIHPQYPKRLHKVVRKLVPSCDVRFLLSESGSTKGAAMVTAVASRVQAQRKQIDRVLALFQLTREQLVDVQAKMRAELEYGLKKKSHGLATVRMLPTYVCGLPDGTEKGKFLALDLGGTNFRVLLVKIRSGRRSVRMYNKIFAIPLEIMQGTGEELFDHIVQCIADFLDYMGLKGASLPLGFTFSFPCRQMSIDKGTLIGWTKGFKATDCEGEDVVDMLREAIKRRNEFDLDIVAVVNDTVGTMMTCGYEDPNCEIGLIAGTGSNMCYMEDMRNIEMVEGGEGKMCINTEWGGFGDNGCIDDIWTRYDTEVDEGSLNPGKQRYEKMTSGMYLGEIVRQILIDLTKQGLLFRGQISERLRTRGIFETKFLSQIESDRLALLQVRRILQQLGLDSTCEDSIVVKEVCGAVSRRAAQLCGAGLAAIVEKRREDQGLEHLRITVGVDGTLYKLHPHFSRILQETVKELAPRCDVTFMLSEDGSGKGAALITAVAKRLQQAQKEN

[12] = molecular target: Glucose-6-phosphate 1-dehydrogenase (Homo sapiens, UniProt P11413); test: inhibition of Homo sapiens G6PD, dose series – biochemical, fluorescence, selectivity assay for P. falciparum G6PD inhibitor project, dose response (AID 504792); format: functional
[13] = NIH3T3 cell viability loss – ATP luminescence, mouse fibroblasts, counter-screen, dose response (AID 2010); format: functional, cell-based; conditions: NIH3T3;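 also: cells exposed to compound for about 90 hours before reading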
[14] = molecular target: Genome polyprotein (dengue virus type 2, UniProt P29990); test: flavivirus cap methylation enzyme inhibition – biochemical, confirmation dose response, primary screen (AID 588689); format: functional
[15] = molecular target: T7, Cytochrome P450 3A4 (Homo sapiens, UniProt P08684);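 also: CYP3A4 tested as one member of a cytochrome P450 panel screen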
[16] = Trypanosoma cruzi growth suppression in host cells – NIH3T3 host cells, beta-gal luminescence, confirmation (AID 2044); format: functional, cell-based;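 also: intracellular parasites grown in NIH/3T3 mouse fibroblasts as host cells; luminescent beta-galactosidase reporter signal from transgenic T. cruzi replicating inside host cells; inhibitors lower the luminescence signal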
[17] = molecular target: Cytochrome P450 2D6 (Homo sapiens, UniProt P10635);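 also: CYP2D6 member of a cytochrome P450 panel assay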
[18] = molecular target: Beta-galactosidase (Escherichia coli, UniProt Q8VNN2); test: detection-enzyme interference by beta-gal modulators – biochemical, E. coli enzyme, set 3, artefact control for CCR6 antagonist project, dose response (AID 504712); format: functional
[19] = molecular target: T8, Polyadenylate-binding protein 1 (Homo sapiens, UniProt P11940); test: MLLE binding blockers, Cy5 peptide tracer – biochemical, fluorescence polarization, Cy5-PAM2 peptide, secondary, miRNA deadenylation inhibitor project, dose response (AID 602260); format: functional; conditions: read-out: IC50_Mean
[20] = molecular target: T8, Polyadenylate-binding protein 1; test: MLLE domain peptide-binding blockers, IC50 – biochemical, fluorescence polarization, FITC-PAM2 peptide, dose response (AID 602259); format: functional; conditions: read-out: IC50_Mean
[21] = HEK-293T viability loss, compound-treated – cell-based, uHTS hits, cytotoxicity control for B/T-cell NF-kB inhibitor project, dose response (AID 489019); format: functional;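 also: IC50 reflects cytotoxicity as loss of cell viability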
[22] = system: Jurkat; test: blockers of NF-kB activation in T cells – Jurkat, luciferase reporter, luminescence, B- and T-cell, dose response (AID 489004); format: functional, cell-based; conditions: Homo sapiens;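 also: NF-kB luciferase reporter Jurkat cells stimulated with PMA plus ionomycin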
[23] = molecular target: T7, Cytochrome P450 3A4; remark: listed apart in the source
[24] = molecular target: Cytochrome P450 2C19 (Homo sapiens, UniProt P33261); test: Cytochrome panel assay with activity outcomes. Panel member name: p450-cyp2c19 Compounds with AC50 equal or less than 10 uM are considered active; format: functional; conditions: read-out: AC50
[25] = molecular target: Cytochrome P450 2C9 (Homo sapiens, UniProt P11712)
[26] = MIN6 cell viability loss – mouse insulinoma, cytotoxicity control, dose response (AID 2122); format: functional;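 also: confirmatory high-throughput counterscreen run to flag cytotoxic compounds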
[27] = decrease of insulin promoter-GFP reporter – imaging, high-content screening, mouse beta cells (AID 1628); format: functional; conditions: MIN6
[28] = molecular target: Induced myeloid leukemia cell differentiation protein Mcl-1 (Homo sapiens, UniProt Q07820); format: functional
[29] = molecular target: Exodeoxyribonuclease V (Escherichia coli (strain K12), UniProt P04993+P07648+P08394); test: RecBCD inhibition via phage-restricted bacterial growth – absorbance, V66 E. coli, mutant T4 phage, counter-screen for AddAB inhibitor project, dose response (AID 492957); format: functional, cell-based, Escherichia coli str. K-12 substr. MG1655
[30] = Counterscreen for AddAB inhibitors: absorbance-based bacterial cell-based high throughput dose response assay for inhibitors of bacterial viability. [Related pubchem assays (depositor defined):AID435030, AID449728, AID449731, AID488942, AID488955, AID488956]; format: functional
[31] = molecular target: Paired box protein Pax-8 (Homo sapiens, UniProt Q06710); test: PAX8 transcriptional activity inhibition in RMG-I – RMG-I cells, luciferase, cherry-pick, dose response (AID 687027); format: functional, cell-based;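 also: luciferase reporter driven by Pax8 target thyroperoxidase promoter measured by SteadyGlo luminescence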
Paired box protein Pax-8, sequence (Q06710 whole entry): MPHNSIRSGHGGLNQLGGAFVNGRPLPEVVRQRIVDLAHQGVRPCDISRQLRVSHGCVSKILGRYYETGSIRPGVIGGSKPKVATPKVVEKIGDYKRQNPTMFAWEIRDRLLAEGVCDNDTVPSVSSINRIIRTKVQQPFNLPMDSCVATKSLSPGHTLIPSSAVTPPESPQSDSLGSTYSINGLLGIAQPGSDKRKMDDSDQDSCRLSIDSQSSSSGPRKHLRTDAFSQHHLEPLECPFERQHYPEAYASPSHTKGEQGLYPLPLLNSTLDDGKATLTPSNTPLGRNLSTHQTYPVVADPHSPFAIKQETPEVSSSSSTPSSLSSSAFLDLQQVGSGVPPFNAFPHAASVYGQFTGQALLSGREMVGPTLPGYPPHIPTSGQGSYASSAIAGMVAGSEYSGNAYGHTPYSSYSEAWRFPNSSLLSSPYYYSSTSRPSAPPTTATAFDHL

T8 sequence (P11940 whole entry, the tested form may be a part): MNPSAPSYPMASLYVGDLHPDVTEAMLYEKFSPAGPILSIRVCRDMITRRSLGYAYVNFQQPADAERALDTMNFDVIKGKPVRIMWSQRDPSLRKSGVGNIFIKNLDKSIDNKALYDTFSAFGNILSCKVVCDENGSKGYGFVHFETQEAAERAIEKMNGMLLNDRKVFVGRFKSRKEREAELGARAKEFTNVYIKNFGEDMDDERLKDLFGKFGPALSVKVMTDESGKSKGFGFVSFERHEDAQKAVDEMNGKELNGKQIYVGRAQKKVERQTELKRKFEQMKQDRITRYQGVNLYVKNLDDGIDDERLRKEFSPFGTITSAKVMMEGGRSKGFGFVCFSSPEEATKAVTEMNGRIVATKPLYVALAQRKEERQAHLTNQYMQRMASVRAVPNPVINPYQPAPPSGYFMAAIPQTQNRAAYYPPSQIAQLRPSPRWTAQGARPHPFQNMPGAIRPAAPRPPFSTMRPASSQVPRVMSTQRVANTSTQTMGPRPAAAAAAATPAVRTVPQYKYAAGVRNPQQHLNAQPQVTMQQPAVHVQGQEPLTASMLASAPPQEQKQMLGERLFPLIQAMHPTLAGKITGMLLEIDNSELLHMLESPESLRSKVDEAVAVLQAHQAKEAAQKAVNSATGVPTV
T1 sequence (P09923 whole entry): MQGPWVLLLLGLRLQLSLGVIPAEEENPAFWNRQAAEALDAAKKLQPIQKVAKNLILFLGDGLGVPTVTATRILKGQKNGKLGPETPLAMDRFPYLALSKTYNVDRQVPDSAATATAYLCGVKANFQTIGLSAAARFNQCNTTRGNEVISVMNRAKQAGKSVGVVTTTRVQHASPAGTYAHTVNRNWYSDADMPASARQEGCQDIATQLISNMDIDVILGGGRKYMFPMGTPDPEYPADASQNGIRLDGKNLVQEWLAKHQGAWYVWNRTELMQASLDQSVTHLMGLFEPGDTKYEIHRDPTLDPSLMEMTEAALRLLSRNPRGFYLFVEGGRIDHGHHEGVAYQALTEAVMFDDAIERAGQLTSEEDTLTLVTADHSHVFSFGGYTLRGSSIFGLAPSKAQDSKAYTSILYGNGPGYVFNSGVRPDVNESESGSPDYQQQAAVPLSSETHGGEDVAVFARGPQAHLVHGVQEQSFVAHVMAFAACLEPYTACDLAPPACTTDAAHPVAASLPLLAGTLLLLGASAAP
T3 sequence (P51452 whole entry): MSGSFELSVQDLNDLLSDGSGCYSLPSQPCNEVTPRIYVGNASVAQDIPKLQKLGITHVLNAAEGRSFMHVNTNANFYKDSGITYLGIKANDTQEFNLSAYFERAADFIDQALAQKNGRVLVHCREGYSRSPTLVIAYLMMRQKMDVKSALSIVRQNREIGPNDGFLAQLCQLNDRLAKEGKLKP
T7 sequence (P08684 whole entry): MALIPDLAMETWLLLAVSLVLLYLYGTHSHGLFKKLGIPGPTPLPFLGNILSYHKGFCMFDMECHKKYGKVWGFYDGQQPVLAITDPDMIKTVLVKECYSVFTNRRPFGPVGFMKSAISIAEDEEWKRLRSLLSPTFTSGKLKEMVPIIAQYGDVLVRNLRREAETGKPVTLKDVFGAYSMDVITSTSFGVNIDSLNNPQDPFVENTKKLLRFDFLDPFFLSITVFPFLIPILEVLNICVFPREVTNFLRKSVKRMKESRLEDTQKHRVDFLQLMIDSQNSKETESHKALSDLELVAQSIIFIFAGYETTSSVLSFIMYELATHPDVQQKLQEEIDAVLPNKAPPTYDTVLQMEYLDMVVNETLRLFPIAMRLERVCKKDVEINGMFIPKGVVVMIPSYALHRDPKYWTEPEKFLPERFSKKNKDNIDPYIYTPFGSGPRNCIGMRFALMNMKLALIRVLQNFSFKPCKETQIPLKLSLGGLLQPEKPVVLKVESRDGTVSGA
Cytochrome P450 2D6, sequence (P10635 whole entry): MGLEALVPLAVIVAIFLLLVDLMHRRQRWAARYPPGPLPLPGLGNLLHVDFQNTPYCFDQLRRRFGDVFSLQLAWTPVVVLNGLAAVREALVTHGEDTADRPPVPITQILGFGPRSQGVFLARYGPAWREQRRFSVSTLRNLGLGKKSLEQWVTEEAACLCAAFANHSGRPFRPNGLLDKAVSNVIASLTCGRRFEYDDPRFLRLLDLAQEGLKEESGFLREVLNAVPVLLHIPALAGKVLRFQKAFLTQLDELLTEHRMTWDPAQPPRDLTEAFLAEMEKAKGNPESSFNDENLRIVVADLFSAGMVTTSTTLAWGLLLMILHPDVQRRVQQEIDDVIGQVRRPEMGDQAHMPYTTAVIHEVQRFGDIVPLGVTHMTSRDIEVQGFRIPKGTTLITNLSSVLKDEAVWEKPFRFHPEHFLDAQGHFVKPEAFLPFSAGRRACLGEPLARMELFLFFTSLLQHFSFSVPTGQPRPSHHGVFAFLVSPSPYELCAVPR
Cytochrome P450 2C19, sequence (P33261 whole entry): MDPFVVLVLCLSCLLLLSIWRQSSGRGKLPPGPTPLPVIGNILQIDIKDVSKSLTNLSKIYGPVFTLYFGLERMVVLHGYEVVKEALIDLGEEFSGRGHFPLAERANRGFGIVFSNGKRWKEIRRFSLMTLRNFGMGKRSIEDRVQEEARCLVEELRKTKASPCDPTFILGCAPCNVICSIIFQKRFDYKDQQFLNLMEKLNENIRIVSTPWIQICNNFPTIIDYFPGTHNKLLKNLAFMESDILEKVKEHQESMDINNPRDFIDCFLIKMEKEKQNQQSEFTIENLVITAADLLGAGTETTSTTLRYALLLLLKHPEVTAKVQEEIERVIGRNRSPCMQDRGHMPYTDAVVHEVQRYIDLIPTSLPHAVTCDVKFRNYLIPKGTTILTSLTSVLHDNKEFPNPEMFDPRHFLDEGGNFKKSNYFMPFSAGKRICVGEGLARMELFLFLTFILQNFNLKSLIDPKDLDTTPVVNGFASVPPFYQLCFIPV
Intestinal-type alkaline phosphatase (Mus musculus, UniProt P24822), sequence (P24822 whole entry): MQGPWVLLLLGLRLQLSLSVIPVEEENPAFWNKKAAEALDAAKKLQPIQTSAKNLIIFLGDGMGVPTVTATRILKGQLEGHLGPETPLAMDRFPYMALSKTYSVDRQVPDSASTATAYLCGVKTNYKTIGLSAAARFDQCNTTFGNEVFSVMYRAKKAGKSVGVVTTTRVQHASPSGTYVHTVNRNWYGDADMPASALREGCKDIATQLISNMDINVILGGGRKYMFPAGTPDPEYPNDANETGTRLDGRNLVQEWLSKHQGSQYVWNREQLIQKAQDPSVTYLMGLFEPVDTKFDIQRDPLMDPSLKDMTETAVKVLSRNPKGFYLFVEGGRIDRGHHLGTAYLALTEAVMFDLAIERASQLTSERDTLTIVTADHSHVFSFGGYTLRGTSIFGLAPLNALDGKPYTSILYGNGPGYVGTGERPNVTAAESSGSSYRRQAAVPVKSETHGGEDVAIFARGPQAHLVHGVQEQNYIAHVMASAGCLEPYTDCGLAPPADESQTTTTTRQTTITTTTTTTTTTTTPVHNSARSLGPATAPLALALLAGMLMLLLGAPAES
Genome polyprotein, sequence (P29990 2492-3391 limits assumed): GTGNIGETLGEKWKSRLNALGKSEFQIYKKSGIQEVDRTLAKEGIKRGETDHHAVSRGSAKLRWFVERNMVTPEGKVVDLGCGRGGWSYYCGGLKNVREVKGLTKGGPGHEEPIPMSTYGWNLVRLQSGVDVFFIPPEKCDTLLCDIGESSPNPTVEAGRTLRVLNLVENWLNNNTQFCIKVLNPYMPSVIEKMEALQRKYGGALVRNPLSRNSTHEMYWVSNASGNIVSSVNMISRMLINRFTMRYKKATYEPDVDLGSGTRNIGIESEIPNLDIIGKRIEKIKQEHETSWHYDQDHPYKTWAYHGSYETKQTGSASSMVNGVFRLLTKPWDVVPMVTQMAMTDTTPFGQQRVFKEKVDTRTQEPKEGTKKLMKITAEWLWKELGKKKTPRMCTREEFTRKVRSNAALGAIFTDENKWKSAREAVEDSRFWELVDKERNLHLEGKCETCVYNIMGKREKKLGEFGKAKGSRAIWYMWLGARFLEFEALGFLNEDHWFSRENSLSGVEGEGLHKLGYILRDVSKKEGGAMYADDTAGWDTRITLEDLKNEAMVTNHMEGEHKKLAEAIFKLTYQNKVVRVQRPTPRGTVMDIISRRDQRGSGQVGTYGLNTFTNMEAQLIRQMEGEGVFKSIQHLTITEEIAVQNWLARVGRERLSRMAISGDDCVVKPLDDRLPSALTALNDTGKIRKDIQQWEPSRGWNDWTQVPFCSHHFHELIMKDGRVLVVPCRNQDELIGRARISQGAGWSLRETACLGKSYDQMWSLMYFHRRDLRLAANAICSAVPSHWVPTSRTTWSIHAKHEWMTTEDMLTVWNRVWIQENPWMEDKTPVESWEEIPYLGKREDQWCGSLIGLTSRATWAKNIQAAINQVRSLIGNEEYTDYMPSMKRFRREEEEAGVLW

## O=C(CCCCC(=O)NNC(=O)COc1ccccc1)NNC(=O)COc1ccccc1
[1]
  EC50: 9.87 µM (active)
[2]
  EC50: > 100 µM (inactive)
[3]
  EC50: 10 µM (active)
[4]
  EC50: 8.19 µM (active)

## CN(C)C(=O)c1cn(CCOc2ccccc2)c2ccccc12
[5]
  IC50: > 100 µM (inactive)
[6]
  IC50: > 100 µM (inactive)
[7]
  IC50: > 100 µM (inactive)
[8]
  IC50: > 100 µM (inactive)

## COc1ccc(Cn2c(SCC(=O)Nc3ccc(C)c(C)c3)nc3ccsc3c2=O)cc1
[9]
  IC50: > 32 µM (inactive)

## Cc1ccccc1N1C(=O)c2ccccc2C1Nc1ccc(Cl)cc1 (stereo unspecified)
[10]
  IC50: > 80 µM (inactive)
[11]
  IC50: > 80 µM (inactive)

## Cc1cc(O)c(-c2cc(O)c(C)cc2O)cc1O
[12]
  IC50: 11.1 µM (active)
[13]
  EC50: 4.13 µM (active)
[14]
  IC50: 39.8 µM (active)
[15]
  AC50: 1.58 µM (inconclusive)
[16]
  EC50: 2.37 µM (active)
[17]
  AC50: inconclusive
[18]
  IC50: > 66.6 µM (inactive)
[19]
  IC50: > 66 µM (inactive)
[20]
  IC50: > 66 µM (inactive)

## Cc1cc(NNC(=O)Nc2cccc(Cl)c2)nc2c1c(C)nn2C
[21]
  IC50: > 80 µM (inactive)
[22]
  IC50: 46.2 µM (inactive)

## CCOc1ccc(CSC(CC(=O)O)C(=O)O)cc1 (stereo unspecified)
[23]
  AC50: inconclusive
[24]
  AC50: 14.1 µM (inconclusive)
[25]
  AC50: 15.8 µM (inconclusive)

## O=C(Nc1ccc(N2CCOCC2)cc1)Nc1ccc2nc(-c3ccco3)c(-c3ccco3)nc2c1
[26]
  IC50: 3.55 µM (active)
[27]
  IC50: 1.91 µM (active)
[28]
  IC50: 0.894 µM (active)

## COc1cc(NC(=O)c2ccc([N+](=O)[O-])o2)ccc1NC(=O)c1ccco1
[29]
  IC50: > 119 µM (inactive)
[30]
  IC50: > 119 µM (inactive)
[31]
  AC50: 3.75 µM (active)
